Patent publication US20220117964A1, “COMBINATION OF FAK INHIBITOR AND BTK INHIBITOR FOR TREATING A DISEASE” (ASCENTAGE PHARMA (SUZHU) CO., LTD., priority 2019, published 2022)

Experiments:
[1] = system: phosphorylated ERK (p-ERK, Thr202/Tyr204); experiment: Western blot, KYSE-150 and KYSE-520 cells; assay type: cell-based; conditions: KYSE-150 (1 μM Compound 5, 1 μM Ibrutinib) and KYSE-520 (1 μM Compound 5, 0.5 μM Ibrutinib), 24 hours
Description: The cells were lysed on ice with 1× cell lysis buffer containing 1% protease inhibitor (PMSF) and 1% phosphokinase inhibitor for 30 minutes, centrifuged at 12000 rpm and 4° C. for 15 minutes, and the supernatant protein lysate was collected. The protein concentration was measured by BCA protein concentration detection kit. The cell protein lysates (20 to 50 μg) were separated using 8-12% SDS-PAGE electrophoresis. The separated proteins were transferred to a PVDF membrane. The PVDF membrane was blocked with 5% BSA buffer at room temperature for 30 minutes to 1 hour, and then incubated overnight on a 4° C. shaker with 1× TBST containing primary antibody. The redundant primary antibody was eluted, and the membrane was washed 3 times with 1× TBST, 5 to 10 minutes for each time. The protein band membrane was incubated with horseradish peroxidase-labeled secondary antibody dilution for 1 hour at room temperature, and the membrane was washed 3 times with 1× TBST, 5 to 10 minutes for each time. The signal generation and detection were performed using an ECL chemiluminescence ultrasensitive colorimetric kit and a chemiluminescence imaging system. The primary antibodies used in this experiment included: EGFR, (CST, Cat.4267S); phosphorylated EGFR (p-EGFR (Tyr1068)), (CST, Cat.3777T); FAK, (CST, Cat.3285S); phosphorylated FAK (p-FAK (Tyr397)), (CST, Cat.8556T); AKT, (CST, Cat.4685S); phosphorylated p-AKT (Ser473), (CST, Cat.9271S); ERK, (CST,Cat.4695S); phosphorylated ERK (p-ERK (Thr202/Tyr204)), (CST, Cat.4370T); phosphorylated MEK (p-MEK (Ser217/221)), (CST, Cat.9121S);BTK, (Immunoway, Cat. YM1294); C-Myc, (CST, Cat. 5605); phosphorylated C-Myc, (CST, Cat. 13748); Cyclin B1 (CST, Cat. 12231S), Cylin D1 (CST, Cat.2978S), GAPDH (ABGENT, Cat.AM1020B). The secondary antibodies used in this experiment included goat-anti-rabbit secondary antibody (Senta, Cat. Sc-2004) and goat-anti-mouse secondary antibody (Senta, Cat. Sc-2005).
(§1) (1) The experimental method was as described in the items (1), (2), (5) of Example 2. […] The changes in signaling pathway of related proteins were determined by Western blotting assay.

[2] = system: phosphorylated-AKT (p-AKT, Ser397); experiment: Western blot, KYSE-150 and KYSE-520 cells; assay type: cell-based; conditions: KYSE-150 (1 μM Compound 5, 1 μM Ibrutinib) and KYSE-520 (1 μM Compound 5, 0.5 μM Ibrutinib), 24 hours
Description: The cells were lysed on ice with 1× cell lysis buffer containing 1% protease inhibitor (PMSF) and 1% phosphokinase inhibitor for 30 minutes, centrifuged at 12000 rpm and 4° C. for 15 minutes, and the supernatant protein lysate was collected. The protein concentration was measured by BCA protein concentration detection kit. The cell protein lysates (20 to 50 μg) were separated using 8-12% SDS-PAGE electrophoresis. The separated proteins were transferred to a PVDF membrane. The PVDF membrane was blocked with 5% BSA buffer at room temperature for 30 minutes to 1 hour, and then incubated overnight on a 4° C. shaker with 1× TBST containing primary antibody. The redundant primary antibody was eluted, and the membrane was washed 3 times with 1× TBST, 5 to 10 minutes for each time. The protein band membrane was incubated with horseradish peroxidase-labeled secondary antibody dilution for 1 hour at room temperature, and the membrane was washed 3 times with 1× TBST, 5 to 10 minutes for each time. The signal generation and detection were performed using an ECL chemiluminescence ultrasensitive colorimetric kit and a chemiluminescence imaging system. […]
as §1

| Structure (SMILES) | protein expression level of phosphorylated ERK (p-ERK, Thr202/Tyr204) [1] | protein expression level of phosphorylated-AKT (p-AKT, Ser397) [2] |
| --- | --- | --- |
| C=CC(=O)N1CCC[C@@H](n2nc(-c3ccc(Oc4ccccc4)cc3)c3c(N)ncnc32)C1 [Ibrutinib] | significantly decrease | – |
| Cc1cc(Nc2ncc(Cl)c(Nc3ccccc3S(=O)(=O)C(C)C)n2)c(OC(C)C)cc1C1=CCN(C2CCOCC2)CC1 [Compound 5, 5-chloro-N^2-(2-isopropoxy-5-methyl-4-(1-(tetrahydro-2H-pyran-4-yl)-1,2,3,6-tetrahydropyridin-4-yl)phenyl)-N^4-(2-(isopropylsulfonyl)phenyl)pyrimidine-2,4-diamine] | – | significantly decrease |
